Values of other authors as cited in patent US7250416B2, “Azacytosine analogs and derivatives” (SuperGen, Inc., priority 2005, dated 2007).
Like-named read-outs stand apart in the source and are kept apart here.

Experiments:
[1] = for steady-state plasma concentration: estimated
cytidine deaminase = target: T1, cytidine deaminase (Homo sapiens, UniProt P32320); settings: by cytidine deaminase at equal concentrations
T1 construct: the enzyme purified from human liver; from tissue; host or cells: human liver
T1 sequence (P32320 whole entry): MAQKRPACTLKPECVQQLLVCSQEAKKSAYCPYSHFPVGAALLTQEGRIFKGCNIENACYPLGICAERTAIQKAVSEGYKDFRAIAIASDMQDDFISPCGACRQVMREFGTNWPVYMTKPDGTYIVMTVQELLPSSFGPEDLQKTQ

Nc1ncn([C@H]2C[C@H](O)[C@@H](CO)O2)c(=O)n1 [decitabine, 5-aza-2′-deoxycytidine]
time of hydrolysis to the amidino-urea derivative (1h) (alkaline medium): within a few minutes | stability in aqueous media (aqueous media, hydrolytic degradation): unstable | maximum infusion time of reconstituted solution (reconstituted aqueous solution stored in the refrigerator for less than 7 hr): ≤ 3 h | steady-state plasma concentration ([1]; 6-hour infusion of 100 mg/m^2): 0.31 to 0.39 µg/mL | range of concentrations during infusion ([1]; 600-mg/m^2 infusion): 0.41 to 16 µg/mL | half-life after discontinuing the infusion ([1]; humans): 12 to 20 min | total urinary excretion, % of the administered dose ([1]; humans): less than 1% | volume of distribution ([1]; humans): about 4.6 L/kg | terminal half-life ([1]; humans, measured by bioassay): 10 to 35 min | steady-state plasma concentration ([1]; infusion rate of 1 mg/kg/h): 0.2 to 0.5 µg/mL | plasma concentration ([1]; infusion times of 40–60 hours, infusion rate 1 mg/kg/h): 430 to 760 ng/mL | penetration into the cerebrospinal fluid, % of the plasma concentration ([1]; man, end of a 36-hour intravenous infusion): 14–21% | plasma concentration ([1]; patients, 100 mg/m^2 as a 3-hour infusion): about 0.4 μg/ml

Nc1ccn([C@H]2C[C@H](O)[C@@H](CO)O2)c(=O)n1 [deoxycytidine, 2′-deoxycytidine]
rate of deamination relative to that of decitabine (cytidine deaminase): about 6 fold
